Legend:
[1] = target: Recombinant human KAT6B protein (657-1069) (Homo sapiens (Human), UniProt Q8WYB5); assay: KAT6B biochemical TR-FRET assay; settings: histone H4 peptide 1000 nM, AcCoA 100 nM, enzyme 5 nM
Description: Enzymatic reactions of KAT6A and KAT6B were performed using Fluorescence Resonance Energy Transfer (TR-FRET) assay, which measures acetylation of a synthetic, biotinylated histone-H4 peptide by the KAT6A and KAT6B enzymes. Recombinant human KAT6A protein (497-780) were expressed in BL21 cell using an E. coli expression system. Recombinant human KAT6B protein (657-1069) was expressed in sf9 cell using a baculovirus expression system. Histone H4 peptide (SEQ ID NO: 1—[…]-GGK-Biotin), which was used as substrate, was synthesized by GL Biochem, Shanghai, China. Acetyl coenzyme A was purchased from Sigma-Aldrich (#A-2056).
(§1) Testing for the inhibition activities of various compounds disclosed herein was carried out at room temperature in assay buffer containing 100 mM Tris/HCl Ph7.8, 15 mM NaCl, 0.01% chicken egg white albumin, 1 mM DTT and 0.01% Tween-20. Compounds in DMSO were dispensed into wells of a black, 384-well plate (Corning 4514) using ECHO555 (Beckman). The final concentration ranges of the test compounds were 0.0625-1,000 nM, 0.625-10,000 nM, or 0.313-5,000 nM. Five μL of KAT6A or KAT6B enzyme solution were added to wells, and the plate was incubated for 1 hour at room temperature (rt). After incubation for 1 hour at rt, 5 μL H4 and AcCoA substrate solutions were added to the wells to initiate reaction, and the plate was incubated. After 2 hours reaction, 5 μL detection reagent were added to the wells, and the plate was incubated for 2 hours. After two hours incubation, detection reagent containing 5 nM Anti-histone H4 antibody (ABCAM #ab177790), 100 μM formic acid (sigma #06473-100ML), 0.1 test/μL streptavidin-XL665 (PerkinElmer #610SAXLG), 0.05 test/μL PAb anti-rabbit IgG-Eu (PerkinElmer μ61PARKLA) was added to the wells. TR-FRET was measured on a microplate reader (PHERAstar FSX, BMG labtech). The IC50s were calculated based on inhibition of enzyme activity in the presence of increasing concentrations of test compounds, and the results are shown in Table 6. In Table 6, I≤5 nM, 5 nM<II≤50 nM.

[2] = target: Recombinant human KAT6A protein (497-780) (Homo sapiens (Human), UniProt Q92794); assay: KAT6A biochemical TR-FRET assay; settings: histone H4 peptide 2000 nM, AcCoA 300 nM, enzyme 5 nM
Recombinant human KAT6A protein (497-780), sequence (Q92794 497-780): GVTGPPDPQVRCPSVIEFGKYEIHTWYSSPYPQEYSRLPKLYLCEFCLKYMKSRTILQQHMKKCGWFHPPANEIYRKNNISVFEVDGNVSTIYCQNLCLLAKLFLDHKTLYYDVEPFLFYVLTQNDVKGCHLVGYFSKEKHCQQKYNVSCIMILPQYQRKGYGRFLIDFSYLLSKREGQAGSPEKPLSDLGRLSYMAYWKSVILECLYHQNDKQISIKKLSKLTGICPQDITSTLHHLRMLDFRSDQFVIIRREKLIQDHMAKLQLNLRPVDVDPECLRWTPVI
Description: Enzymatic reactions of KAT6A and KAT6B were performed using Fluorescence Resonance Energy Transfer (TR-FRET) assay, which measures acetylation of a synthetic, biotinylated histone-H4 peptide by the KAT6A and KAT6B enzymes. Recombinant human KAT6A protein (497-780) were expressed in BL21 cell using an E. coli expression system. Recombinant human KAT6B protein (657-1069) was expressed in sf9 cell using a baculovirus expression system. […] Acetyl coenzyme A was purchased from Sigma-Aldrich (#A-2056).
as §1, with “The IC50s were calculated based on inhibition of enzyme activity in the presence of increasing concentrations of test compounds, and the results are shown in Table 6.” left out

[3] = test system: histone H3K23 acetylation in U-2 OS cells; assay: Histone H3 lysine 23 acetylation assay in U-2 OS cells (high content analysis); format: cell-based; settings: 24 hrs exposure, H3K23ac level
Description: Assay B: Histone H3 lysine 23 Acetylation Assay
Compounds were tested for their capacity to suppress the histone H3K23 acetylation in the following high content analysis assay.
The cell line U-2 OS (ATCC HTB-96) was seeded at a density of 2000 cells per well in black 384 well cell culture/imaging microplates in 45 μl McCoy's 5A medium with […]. After overnight incubation in 37° C., 5% CO2 incubator, cells were then treated with a 9-point dilution series of compounds and a blank control group with medium containing 0.1% DMSO.
Following a 24 hrs exposure to the compounds, the cells were fixed with 4% immunohistochemical fixative for 20 mins at room temperature, washed with DPBS with 2% fetal bovine serum, and permed with Perm Buffer III for 30 min on ice, washed with DPBS with 2% fetal bovine serum. Then the cells were blocked with Odyssey blocking buffer containing 0.1% Tween 20. 20 ul Anti-Histone H3 (acetyl K23) antibody (Abcam, ab177275) in odyssey blocking buffer containing 0.1% Tween20 was added and incubated overnight at 4° C. After incubation, the cells were washed for 3 times and a secondary antibody Anti-rabbit IgG (H+L), F(ab′)2 Fragment (Alexa Fluor® 647 Conjugate) (CST, 4414S) were added into cells for one hour. The cells were washed and 1 ug/ml DAPI (Thermo, 62248) were added for 10 min. Then cells were washed and read on the PerkinElmer Operetta CLS high content analysis system. The nuclei were identified by DAPI and H3K23ac level was calculated from the Alexa Fluor 647 intensity in the nuclei. Inhibition rate of H3K23ac was calculated as the mean intensity of cells per well relative to blank controls on the same plate.

Recombinant human KAT6B protein (657-1069), sequence (Q8WYB5 657-1069): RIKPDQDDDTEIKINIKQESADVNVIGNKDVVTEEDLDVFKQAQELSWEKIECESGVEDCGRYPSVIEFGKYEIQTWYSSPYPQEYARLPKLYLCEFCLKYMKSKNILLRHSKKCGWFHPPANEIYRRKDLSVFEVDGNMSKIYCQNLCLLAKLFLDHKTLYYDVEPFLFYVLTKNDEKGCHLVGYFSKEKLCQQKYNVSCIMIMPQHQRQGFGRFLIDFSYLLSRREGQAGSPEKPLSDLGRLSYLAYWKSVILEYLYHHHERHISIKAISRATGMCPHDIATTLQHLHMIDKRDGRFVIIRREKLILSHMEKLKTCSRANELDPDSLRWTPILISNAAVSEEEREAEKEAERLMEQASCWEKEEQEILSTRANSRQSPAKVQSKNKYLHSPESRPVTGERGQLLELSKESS

SMILES	IC50 [1]	IC50 [2]	IC50 ([3]; Homo sapiens, U2OS)	IC50 [3]
COc1ccc(C(C)(C)C)nc1S(=O)(=O)NC(=O)c1ccc(Cn2cccn2)c(F)c1 [Example C24, 4-((1H-pyrazol-1-yl)methyl)-N-((6-(tert-butyl)-3-methoxypyridin-2-yl)sulfonyl)-3-fluorobenzamide]	≤ 5 nM	≤ 5 nM	10 to 100 nM	–
COc1ccc(C(C)(C)C)nc1S(=O)(=O)NC(=O)c1ccc(Cn2cccn2)c(C(F)(F)F)c1 [Example C25, 4-((1H-pyrazol-1-yl)methyl)-N-((6-(tert-butyl)-3-methoxypyridin-2-yl)sulfonyl)-3-(trifluoromethyl)benzamide]	≤ 5 nM	≤ 5 nM	≤ 10 nM	–
COc1ccc(C(C)(C)C)nc1S(=O)(=O)NC(=O)c1ccc(Cn2cccn2)c(Br)c1 [Example C26, 4-((1H-pyrazol-1-yl)methyl)-3-bromo-N-((6-(tert-butyl)-3-methoxypyridin-2-yl)sulfonyl)benzamide]	≤ 5 nM	≤ 5 nM	≤ 10 nM	–
COc1cc(C(=O)NS(=O)(=O)c2nc(C(C)(C)C)ccc2OC)ccc1Cn1cccn1 [Example C27, 4-((1H-pyrazol-1-yl)methyl)-N-((6-(tert-butyl)-3-methoxypyridin-2-yl)sulfonyl)-3-methoxy-benzamide]	≤ 5 nM	≤ 5 nM	≤ 10 nM	–
COc1cc(C(=O)NS(=O)(=O)c2cc(C3(OC)CC3)ccc2OC)ccc1Cn1cccn1 [Example C28, 4-((1H-pyrazol-1-yl)methyl)-3-methoxy-N-((2-methoxy-5-(1-methoxy-cyclopropyl)phenyl)sulfonyl)benzamide]	≤ 5 nM	≤ 5 nM	≤ 10 nM	–
COc1ccc(C(C)(C)C)cc1S(=O)(=O)NC(=O)c1ccc(Cc2ccccn2)c(C)c1 [Example C29, N-((5-(tert-butyl)-2-methoxyphenyl)sulfonyl)-3-methyl-4-(pyridin-2-ylmethyl)benzamide]	≤ 5 nM	≤ 5 nM	≤ 10 nM	–
COc1ccc(C(C)(C)C)nc1S(=O)(=O)NC(=O)c1ccc(Cn2cccn2)c(OC(F)F)c1 [Example C30, 4-((1H-pyrazol-1-yl)methyl)-N-((6-(tert-butyl)-3-methoxypyridin-2-yl)sulfonyl)-3-(difluoromethoxy)benzamide]	≤ 5 nM	≤ 5 nM	≤ 10 nM	–
COc1ccc(C(C)(C)C)nc1S(=O)(=O)NC(=O)c1ccc(Cn2cccn2)c(CC(F)F)c1 [Example C31, 4-((1H-pyrazol-1-yl)methyl)-N-((6-(tert-butyl)-3-methoxypyridin-2-yl)sulfonyl)-3-(2,2-difluoroethyl)benzamide]	≤ 5 nM	≤ 5 nM	10 to 100 nM	–
COc1cc(C(=O)NS(=O)(=O)c2nc(C(C)(C)C)ccc2OC)ccc1Cc1ccccn1 [Example C32, N-((6-(tert-butyl)-3-methoxypyridin-2-yl)sulfonyl)-3-methoxy-4-(pyridin-2-ylmethyl)benzamide]	≤ 5 nM	≤ 5 nM	≤ 10 nM	–
COc1cc(C(=O)NS(=O)(=O)c2nc(C(C)(C)C)ccc2OC)ccc1Cn1ccc(C)n1 [Example C33, N-((6-(tert-butyl)-3-methoxypyridin-2-yl)sulfonyl)-3-methoxy-4-((3-methyl-1H-pyrazol-1-yl)methyl)benzamide]	≤ 5 nM	≤ 5 nM	≤ 10 nM	–
CCOc1nc(C(=O)NS(=O)(=O)c2nc(C(C)(C)C)ccc2OC)ccc1Cn1cccn1 [Example C34, 5-((1H-pyrazol-1-yl)methyl)-N-((6-(tert-butyl)-3-methoxypyridin-2-yl)sulfonyl)-6-ethoxy-picolinamide]	≤ 5 nM	≤ 5 nM	≤ 10 nM	–
COc1ccc(C(C)(C)C)cc1S(=O)(=O)NC(=O)c1ccc(Cc2ccccn2)c(C)n1 [Example C35, N-((5-(tert-butyl)-2-methoxyphenyl)sulfonyl)-6-methyl-5-(pyridin-2-ylmethyl)picolinamide]	≤ 5 nM	≤ 5 nM	≤ 10 nM	–
COc1ccc(C(C)(C)C)nc1S(=O)(=O)NC(=O)c1ccc(Cn2cccn2)c(C(F)F)c1 [Example C36, 4-((1H-pyrazol-1-yl)methyl)-N-((6-(tert-butyl)-3-methoxypyridin-2-yl)sulfonyl)-3-(difluoromethyl)benzamide]	≤ 5 nM	≤ 5 nM	≤ 10 nM	–
COc1ccc(C(C)(C)C)nc1S(=O)(=O)NC(=O)c1ccc(Cn2ccc(N)n2)c(OC)n1 [Example C37, 5-((3-amino-1H-pyrazol-1-yl)methyl)-N-((6-(tert-butyl)-3-methoxypyridin-2-yl)sulfonyl)-6-methoxypicolinamide]	≤ 5 nM	≤ 5 nM	≤ 10 nM	–
COc1cc(C(=O)NS(=O)(=O)c2nc(C(C)(C)C)ccc2OC)ccc1Cn1cc(N)cn1 [Example C38]	≤ 5 nM	≤ 5 nM	–	≤ 10 nM
COc1ccc2c(c1S(=O)(=O)NC(=O)c1ccc(Cn3cccn3)c(OC)n1)OCCC2(C)C [Example C39, 5-((1H-pyrazol-1-yl)methyl)-6-methoxy-N-((7-methoxy-4,4-dimethylchroman-8-yl)sulfonyl)picolinamide]	≤ 5 nM	≤ 5 nM	≤ 10 nM	–
COc1ccc(C(C)(C)C)cc1S(=O)(=O)NC(=O)c1ccc(Cn2cccn2)c(OC)n1 [Example C40, 5-((1H-pyrazol-1-yl)methyl)-N-((5-(tert-butyl)-2-methoxyphenyl)sulfonyl)-6-methoxypicolinamide]	≤ 5 nM	≤ 5 nM	≤ 10 nM	–
COc1ccc(C(C)(C)C)nc1S(=O)(=O)NC(=O)c1ccc(Cn2cccn2)c(OC)n1 [Example C41, 5-((1H-pyrazol-1-yl)methyl)-N-((6-(tert-butyl)-3-methoxypyridin-2-yl)sulfonyl)-6-methoxypicolinamide]	≤ 5 nM	≤ 5 nM	≤ 10 nM	–

From patent US20250304535A1, “KAT6 Inhibitors” (BeiGene Switzerland GmbH, priority 2024, published 2025)
